Measured values published in ChEMBL document CHEMBL3046323, “Photosynthetic Electron Transport Inhibitory and Herbicidal Activities of 2-(N-Acylbenzylamino)-4-methyl-6-fluoroalkyl-1, 3, 5-triazine Derivatives” (J Pestic Sci, 2001).

How the values were obtained:
[1] = test system: Chenopodium album; assay: Herbicidal activity against Chenopodium album at 4 kg/ha treated as soil application at pre-emergence after 3 weeks; type: functional
[2] = test system: Digitaria ciliaris; assay: Herbicidal activity against Digitaria ciliaris at 4 kg/ha treated as soil application at pre-emergence after 3 weeks; type: functional
[3] = test system: Amaranthus blitum subsp. oleraceus; assay: Herbicidal activity against Amaranthus blitum subsp. Oleraceus at 4 kg/ha treated as soil application at pre-emergence after 3 weeks; type: functional
[4] = Inhibition of photosynthetic electron transport in Spinacia oleracea leaf thylakoids assessed as oxygen formation
[5] = test system: Echinochloa crus-galli var. crus-galli; assay: Herbicidal activity against Echinochloa crus-galli var. crus-galli at 4 kg/ha treated as soil application at pre-emergence after 3 weeks; type: functional
[6] = test system: Schoenoplectiella juncoides; assay: Herbicidal activity against Schoenoplectiella juncoides var. Hotarui Ohwi at 4 kg/ha treated as foliar application at post-emergence after 3 weeks; type: functional
[7] = test system: Chenopodium album; assay: Herbicidal activity against Chenopodium album at 4 kg/ha treated as paddy application at pre-emergence after 3 weeks; type: functional
[8] = test system: Echinochloa crus-galli var. crus-galli; assay: Herbicidal activity against Echinochloa crus-galli var. crus-galli at 4 kg/ha treated as paddy application at pre-emergence after 3 weeks; type: functional
[9] = test system: Persicaria longiseta; assay: Herbicidal activity against Persicaria longiseta at 4 kg/ha treated as paddy application at pre-emergence after 3 weeks; type: functional
[10] = test system: Digitaria ciliaris; assay: Herbicidal activity against Digitaria ciliaris at 4 kg/ha treated as paddy application at pre-emergence after 3 weeks; type: functional
[11] = test system: Echinochloa oryzicola; assay: Herbicidal activity against Echinochloa oryzicola at 4 kg/ha treated as foliar application at post-emergence after 3 weeks; type: functional
[12] = test system: Rotala indica; assay: Herbicidal activity against Rotala indica at 4 kg/ha treated as foliar application at post-emergence after 3 weeks; type: functional
[13] = test system: Persicaria longiseta; assay: Herbicidal activity against Persicaria longiseta at 4 kg/ha treated as soil application at pre-emergence after 3 weeks; type: functional
[14] = test system: Pontederia vaginalis; assay: Herbicidal activity against Monochoria vaginalis at 4 kg/ha treated as foliar application at post-emergence after 3 weeks; type: functional

| Compound | Activity [1] | Activity [2] | Activity [3] | pI50 [4] | Activity [5] | Activity [6] | Activity [7] | Activity [8] | Activity [9] | Activity [10] | Activity [11] | Activity [12] | Activity [13] | Activity [14] |
| --- | --- | --- | --- | --- | --- | --- | --- | --- | --- | --- | --- | --- | --- | --- |
| CCNc1nc(Cl)nc(NCC)n1 [SIMAZINE] | 91% | 51% | 91% | 6.28 | 26% | – | – | – | – | – | – | – | – | – |
| Cc1nc(N(C=O)Cc2ccc(Cl)cc2)nc(C(F)(F)F)n1 | 100% | 91% | 91% | – | 100% | 91% | 100% | 100% | 100% | 91% | 91% | 100% | 100% | 100% |
| Cc1nc(N(C=O)Cc2ccccc2)nc(C(F)(F)F)n1 | 100% | 76% | 76% | – | 76% | 0% | 100% | 76% | 100% | 76% | 0% | – | 91% | 26% |
| CC(=O)N(Cc1ccccc1)c1nc(C)nc(C(F)(F)F)n1 | 100% | 1% | – | – | 0% | 100% | 100% | 76% | 51% | 0% | 100% | – | – | 100% |
| CCNc1nc(Cl)nc(NC(C)C)n1 [ATRAZINE] | – | – | – | – | – | 76% | 91% | – | 91% | – | 91% | – | – | 100% |
| Cc1nc(C(F)F)nc(N(C=O)Cc2ccc(Cl)cc2)n1 | 100% | 91% | 100% | – | 100% | 76% | 100% | 76% | 100% | 76% | 91% | 100% | 100% | 100% |
| Cc1nc(N(Cc2ccccc2)C(=O)C(C)(C)C)nc(C(F)(F)F)n1 | – | 51% | – | – | 26% | – | – | – | – | – | – | – | – | – |
| Cc1nc(N(C=O)Cc2ccc(Cl)cc2)nc(C(F)(F)C(F)(F)F)n1 | 91% | 100% | 100% | – | 100% | 100% | 100% | 100% | 100% | 76% | 76% | 100% | 100% | 100% |
| Cc1nc(NCc2ccccc2)nc(C(F)(F)F)n1 | 100% | 91% | – | – | 76% | 91% | 76% | 100% | 76% | 91% | 76% | 76% | – | 91% |
| Cc1nc(NCc2ccc(Cl)cc2)nc(C(F)F)n1 | – | – | – | 6.62 | – | – | – | – | – | – | – | – | – | – |
| CCCc1nc(C)nc(N(C=O)Cc2ccc(Cl)cc2)n1 | 91% | 91% | 76% | – | 51% | 1% | 100% | 100% | 100% | 1% | 0% | 100% | 100% | 76% |
| CCC(=O)N(Cc1ccccc1)c1nc(C)nc(C(F)(F)F)n1 | 91% | 91% | 91% | – | 76% | 0% | 100% | 76% | 100% | 76% | 0% | – | 91% | 26% |
| CCCC(=O)N(Cc1ccccc1)c1nc(C)nc(C(F)(F)F)n1 | 76% | 51% | 76% | – | 51% | 0% | 100% | 100% | 1% | 51% | 0% | 26% | 51% | 51% |
| Cc1nc(NCc2ccc(Cl)cc2)nc(C(F)(F)F)n1 | 100% | 100% | – | 6.97 | 100% | 100% | 91% | 100% | 91% | 100% | 91% | 91% | – | 100% |
